Test results from ChEMBL document CHEMBL5050844 (2019).

Legend:
[1] = Induction of anti-CD3 antibodies-stimulated human CD8+ T cell activation in immunocompetent mouse assessed fold increase in CD25 expression at 90 mg/kg, po administered twice a day; format: functional; also: reference of the scale not given here
[2] = Induction of anti-CD3/CD28 antibodies-stimulated human T cell activation at 0.3 uM assessed fold increase in IL-2 secretion measured by ELISA assay; format: functional, T cell line
[3] = Induction of anti-CD3 antibodies-stimulated human T cell activation at 1 uM assessed fold increase in CD25 expression measured by ELISA assay; format: functional, T cell line; also: reference of the scale not given here
[4] = Induction of anti-CD3/CD28 antibodies-stimulated human T cell activation at 1 uM assessed fold increase in IL-2 secretion measured by ELISA assay; format: functional, T cell line
[5] = target: T1, E3 ubiquitin-protein ligase CBL-B (Homo sapiens, UniProt Q13191); test: Binding affinity towards N-terminal biotinylated Avi-tagged human CBL-B (36 to 427 residues) measured by surface plasmon resonance assay
T1 sequence (Q13191 whole entry, the tested form may be a part): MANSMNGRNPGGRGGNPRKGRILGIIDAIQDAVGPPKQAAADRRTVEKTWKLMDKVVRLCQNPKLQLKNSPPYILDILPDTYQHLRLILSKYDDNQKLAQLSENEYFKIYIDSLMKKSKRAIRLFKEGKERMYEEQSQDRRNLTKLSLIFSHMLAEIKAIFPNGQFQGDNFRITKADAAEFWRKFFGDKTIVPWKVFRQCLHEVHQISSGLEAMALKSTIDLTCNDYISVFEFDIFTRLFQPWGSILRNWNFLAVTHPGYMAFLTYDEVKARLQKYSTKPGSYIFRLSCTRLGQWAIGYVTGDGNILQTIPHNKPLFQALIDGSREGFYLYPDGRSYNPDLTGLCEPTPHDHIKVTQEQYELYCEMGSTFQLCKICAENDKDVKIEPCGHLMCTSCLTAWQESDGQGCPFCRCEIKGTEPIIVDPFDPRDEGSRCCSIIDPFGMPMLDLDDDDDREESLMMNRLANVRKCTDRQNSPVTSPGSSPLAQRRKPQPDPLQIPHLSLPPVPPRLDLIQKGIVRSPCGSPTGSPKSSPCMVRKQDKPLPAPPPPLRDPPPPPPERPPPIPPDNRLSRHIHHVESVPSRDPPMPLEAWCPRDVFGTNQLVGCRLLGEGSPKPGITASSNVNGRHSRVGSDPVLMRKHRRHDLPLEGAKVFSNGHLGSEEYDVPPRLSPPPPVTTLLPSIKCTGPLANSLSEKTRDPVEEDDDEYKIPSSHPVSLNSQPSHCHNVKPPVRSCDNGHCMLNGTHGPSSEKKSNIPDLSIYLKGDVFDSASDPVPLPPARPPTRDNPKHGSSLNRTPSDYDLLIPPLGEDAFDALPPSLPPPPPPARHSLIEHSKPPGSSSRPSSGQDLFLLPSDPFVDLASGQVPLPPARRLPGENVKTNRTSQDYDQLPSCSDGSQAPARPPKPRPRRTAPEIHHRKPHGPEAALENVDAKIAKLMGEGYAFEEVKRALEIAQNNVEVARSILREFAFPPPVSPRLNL

[6] = Induction of anti-CD3/CD28 antibodies-stimulated human T cell activation at 0.3 uM assessed fold increase in CD25 expression measured by ELISA assay; format: functional, T cell line
[7] = Induction of anti-CD3 antibodies-stimulated human CD4+ T cell activation in immunocompetent mouse assessed fold increase in CD25 expression at 135 mg/kg, po administered twice a day; format: functional; also: reference of the scale not given here
[8] = target: T1, E3 ubiquitin-protein ligase CBL-B; test: Inhibition of N-terminal Avi-tagged human CBL-B (36 to 427 residues) incubated with 60 nM Src kinase for 1.5 hrs followed by incubation with fluorescently labeled UbcH5B-Ub for 1 hr and measured by TR-FRET assay; format: single protein
[9] = Induction of anti-CD3/CD28 antibodies-stimulated human T cell activation at 1 uM assessed fold increase in CD25 expression measured by ELISA assay; format: functional, T cell line
[10] = Induction of anti-CD3 antibodies-stimulated human T cell activation at 1 uM assessed fold increase in IL-2 secretion measured by ELISA assay; format: functional, T cell line; also: reference of the scale not given here
[11] = Induction of activation of human CD56+ CD3- NK cells co-cultured with human K562 cells in 1:1 ratio and assessed as increase in TNF-alpha secretion at 0.625 uM measured by ELISA assay; format: functional, Natural killer cell
[12] = system: B cell; test: Induction of anti-IgM-stimulated human CD20+ B cell activation at 10 to 1000 uM assessed as increase in CD69 expression measured as mean fluorescence intensity AUC by flow cytometry analysis; format: functional, cell-based; settings: dose 10-1000 µM
[13] = Induction of anti-CD3/CD28 antibodies-stimulated human anergic T cell activation at 0.37 uM assessed fold increase in IFN-gamma secretion measured by ELISA assay; format: functional, T cell line
[14] = Induction of anti-CD3/CD28 antibodies-stimulated human T cell activation at 4 uM assessed fold increase in CD25 expression measured by ELISA assay; format: functional, T cell line
[15] = Induction of anti-CD3/CD28 antibodies-stimulated human T cell activation at 4 uM assessed fold increase in IL-2 secretion measured by ELISA assay; format: functional, T cell line
[16] = Induction of anti-CD3 antibodies-stimulated human exhausted T cell activation assessed fold increase in GM-CSF secretion measured by ELISA assay; format: functional, T cell line; also: reference of the scale not given here
[17] = Induction of anti-CD3 antibodies-stimulated human exhausted T cell activation assessed fold increase in IFN-gamma secretion measured by ELISA assay; format: functional, T cell line; also: reference of the scale not given here
[18] = Induction of allogenic human T cell activation at 3 uM assessed fold increase in cell proliferation; format: functional, T cell line
[19] = Induction of anti-CD3/CD28 antibodies-stimulated human anergic T cell activation at 1.11 uM assessed fold increase in IFN-gamma secretion measured by ELISA assay; format: functional, T cell line
[20] = Induction of activation of human CD56+ CD3- NK cells co-cultured with human K562 cells in 1:1 ratio and assessed as increase in IFN-gamma secretion at 0.625 uM measured by ELISA assay; format: functional, Natural killer cell
[21] = Induction of activation of human CD56+ CD3- NK cells co-cultured with human K562 cells in 1:1 ratio and assessed as increase in IFN-gamma secretion at 2.5 uM measured by ELISA assay; format: functional, Natural killer cell
[22] = Induction of anti-CD3 antibodies-stimulated human exhausted CD8+ T cell activation assessed fold increase in CTLA4 expression measured by flow cytometry analysis; format: functional, T cell line; also: reference of the scale not given here
[23] = Induction of anti-CD3/CD28 antibodies-stimulated human anergic T cell activation at 10 uM assessed fold increase in IFN-gamma secretion measured by ELISA assay; format: functional, T cell line
[24] = Induction of anti-CD3 antibodies-stimulated human T cell activation at 8 uM assessed fold increase in CD25 expression measured by ELISA assay; format: functional, T cell line; also: reference of the scale not given here
[25] = Induction of allogenic human T cell activation at 10 uM assessed fold increase in cell proliferation; format: functional, T cell line
[26] = Induction of anti-CD3 antibodies-stimulated human exhausted CD4+ T cell activation assessed fold increase in CTLA4 expression measured by flow cytometry analysis; format: functional, T cell line; also: reference of the scale not given here
[27] = Induction of anti-CD3 antibodies-stimulated human T cell activation at 8 uM assessed fold increase in IL-2 secretion measured by ELISA assay; format: functional, T cell line; also: reference of the scale not given here
[28] = Induction of activation of human CD56+ CD3- NK cells co-cultured with human K562 cells in 1:1 ratio and assessed as increase in TNF-alpha secretion at 2.5 uM measured by ELISA assay; format: functional, Natural killer cell
[29] = Induction of anti-CD3 antibodies-stimulated human exhausted T cell activation assessed fold increase in IL-2 secretion measured by ELISA assay; format: functional, T cell line; also: reference of the scale not given here
[30] = Induction of activation of human CD56+ CD3- NK cells co-cultured with human K562 cells in 1:1 ratio and assessed as increase in TNF-alpha secretion at 10 uM measured by ELISA assay; format: functional, Natural killer cell
[31] = Induction of activation of human CD56+ CD3- NK cells co-cultured with human K562 cells in 1:1 ratio and assessed as increase in IFN-gamma secretion at 10 uM measured by ELISA assay; format: functional, Natural killer cell

Q: For `C[C@@H](c1cc2c(c(C(F)(F)F)c1)CN(c1cccc(C3(Cc4nncn4C)COC3)c1)C2=O)N1CCC(C)(F)CC1`, which “fold change (FC)” value [1] is on record?
A: 1

Q: What about the “fold change (FC)” value [2] of the same molecule?
A: >=7.5

Q: And the “fold change (FC)” value [3]?
A: >=1.001

Q: What about the “fold change (FC)” value [4] of the same molecule?
A: >=7.5

Q: And the Kd [5]?
A: < 100 nM

Q: What about the “fold change (FC)” value [6] of the same molecule?
A: >=1.76

Q: And the “fold change (FC)” value [7]?
A: 1

Q: And the IC50 [8]?
A: < 100 nM

Q: And the “fold change (FC)” value [9]?
A: >=1.76

Q: And the “fold change (FC)” value [10]?
A: >=0.201

Q: Which results are given for `Cn1cnnc1CC1(c2cccc(NC(=O)c3cc(CN4CC[C@H](F)C4)cc(C4CC4)n3)c2)COC1`?
A: fold change (FC) [1]: 1; fold change (FC) [2]: >=7.5; fold change (FC) [3]: >=1.001; fold change (FC) [4]: >=7.5; Kd [5]: < 100 nM; fold change (FC) [6]: 1.51; fold change (FC) [7]: 1.51; IC50 [8]: < 100 nM; fold change (FC) [9]: 1.51; fold change (FC) [10]: >=0.201

Q: Which results are given for `Cn1cnnc1CC1(c2cccc(N3Cc4c(cc(CN5CCC[C@H](F)C5)cc4C(F)(F)F)C3=O)c2)COC1`?
A: fold change (FC) [1]: 1; fold change (FC) [2]: >=7.5; fold change (FC) [3]: >=1.001; fold change (FC) [4]: >=7.5; fold change (FC) [6]: 1.31; fold change (FC) [7]: 1; IC50 [8]: < 100 nM; fold change (FC) [9]: 1.31; fold change (FC) [10]: >=0.201

Q: With `C[C@H](Cc1nncn1C)c1ccnc(NC(=O)c2cccc(C(F)(F)F)n2)c1` as the molecule, how does the “fold change (FC)” value [11] read?
A: 1.01

Q: What about the AUC [12] of the same molecule?
A: 0.5

Q: And the “fold change (FC)” value [13]?
A: <=2.5

Q: And the “fold change (FC)” value [14]?
A: 1.01

Q: What about the “fold change (FC)” value [15] of the same molecule?
A: >=7.5

Q: What about the “fold change (FC)” value [16] of the same molecule?
A: <=1.4

Q: And the “fold change (FC)” value [17]?
A: <=1.4

Q: And the “fold change (FC)” value [2]?
A: 2.51

Q: What about the “fold change (FC)” value [18] of the same molecule?
A: <=2

Q: What about the “fold change (FC)” value [19] of the same molecule?
A: <=2.5

Q: What about the “fold change (FC)” value [20] of the same molecule?
A: 1.01

Q: And the “fold change (FC)” value [3]?
A: <=0.6

Q: And the “fold change (FC)” value [21]?
A: <=1

Q: And the “fold change (FC)” value [22]?
A: <=1.4

Q: And the “fold change (FC)” value [23]?
A: <=2.5

Q: And the “fold change (FC)” value [4]?
A: 2.51

Q: And the “fold change (FC)” value [24]?
A: 0.801

Q: What about the “fold change (FC)” value [6] of the same molecule?
A: 1.01

Q: What about the “fold change (FC)” value [25] of the same molecule?
A: <=2

Q: And the “fold change (FC)” value [26]?
A: <=1.4

Q: What about the “fold change (FC)” value [27] of the same molecule?
A: 0.051

Q: And the “fold change (FC)” value [9]?
A: 1.01

Q: What about the “fold change (FC)” value [28] of the same molecule?
A: 1.01

Q: What about the “fold change (FC)” value [10] of the same molecule?
A: <=0.05

Q: And the “fold change (FC)” value [29]?
A: <=2.5

Q: And the “fold change (FC)” value [30]?
A: 1.01

Q: And the “fold change (FC)” value [31]?
A: 2.01

Q: For `Cn1cnnc1CC1(c2cccc(N3Cc4c(cc(CN5CC6(CC6)C5)cc4C(F)(F)F)C3=O)c2)COC1`, which “fold change (FC)” value [1] is on record?
A: 1

Q: And the “fold change (FC)” value [2]?
A: >=7.5

Q: What about the “fold change (FC)” value [3] of the same molecule?
A: >=1.001

Q: What about the “fold change (FC)” value [4] of the same molecule?
A: >=7.5

Q: And the “fold change (FC)” value [6]?
A: 1.31

Q: And the “fold change (FC)” value [7]?
A: 1.51

Q: What about the IC50 [8] of the same molecule?
A: < 100 nM

Q: And the “fold change (FC)” value [9]?
A: 1.31

Q: What about the “fold change (FC)” value [10] of the same molecule?
A: >=0.201

Q: Which “fold change (FC)” value [1] does the source give for `Cn1cnnc1CC1(c2cccc(N3Cc4c(cc(CN5CCC(F)CC5)cc4C(F)(F)F)C3=O)c2)COC1` here?
A: 1

Q: And the “fold change (FC)” value [7]?
A: 1.51

Q: What about the IC50 [8] of the same molecule?
A: < 100 nM

Q: What does the source list for `C[C@H](Cc1nncn1C)c1cccc(NC(=O)c2cc(C3CC3)nc(C3CC3)n2)c1`?
A: fold change (FC) [14]: 1.51; fold change (FC) [15]: >=7.5; fold change (FC) [2]: 2.51; fold change (FC) [3]: >=1.001; fold change (FC) [4]: 5; fold change (FC) [24]: >=1.001; Kd [5]: < 100 nM; fold change (FC) [6]: 1.01; fold change (FC) [27]: >=0.201; IC50 [8]: < 100 nM; fold change (FC) [9]: 1.51; fold change (FC) [10]: >=0.201
